From BindingDB's records for doi:10.1016/s0014-2999(98)00241-6 (Mcgill University, 1998) come the findings set out here.

The Ki is a measure of affinity in units of concentration, obtained from inhibition or displacement. High values mean lower affinity, low ones higher affinity.

For the assay, the target named is Norepinephrine transporter (Rattus norvegicus, UniProt Q9JIA2).

`COCCCC/C(=N\OCCN)c1ccc(C(F)(F)F)cc1` [(1E)-5-methoxy-1-[4-(trifluoromethyl)phenyl]pentan-1-one O-(2-aminoethyl)oxime] displayed a Ki of 1360 nM.

`c1ccc2c(CCC3CCNCC3)c[nH]c2c1` had a Ki of 2760 nM.
